# Conditions: buffer; pH 7.4; 200.0 µM
row,SMILES,solubility kinetic [µg/mL]
1,Cc1ccc(NS(=O)(=O)c2c(C)noc2C)cc1,> 39.9
2,OC1(C(F)(F)F)CC(c2ccc3ccccc3c2)=NO1 (stereo not drawn),> 42.2
3,Cc1ccc(C23CCC(=O)N2C(C(=O)O)CS3)c(C)c1 (stereo not drawn),> 43.7
4,O=C(COC(=O)Cc1ccccc1F)Nc1ccc(F)cc1F,47.9
5,CC(C)N(Cc1ccccc1)C(=O)CN1c2cccc3cccc(c23)S1(=O)=O,11
6,COC(=O)c1ccc(C(=O)N(Cc2ccccc2)c2ccccc2)cc1,10.7
7,Cc1ccc(Cl)cc1NC(=O)c1ccccn1,6.3
8,COc1ccccc1NC(=O)COC(=O)CNC(=O)C1CCCCC1,> 52.3
9,COc1cc(OC)c(S(=O)(=O)NC(C)C)cc1C(=O)O,> 45.5
10,CN(CC12CC3CC(CC(C3)C1)C2)C(=O)c1ccco1,37.8
11,O=C(NCC1CCCO1)c1ccc[nH]1 (stereo not drawn),> 29.1
12,COc1ccc(Nc2nc(N3CCOCC3)nc(N3CCOCC3)n2)cc1,1.4
13,Cc1ccc(OCCNC(=O)C(C)SCC(=O)Nc2ccc(F)cc2)cc1 (stereo not drawn),35
14,Cc1cc(SCc2ccccc2F)nc(=O)[nH]1,> 37.5
15,CCCS(=O)(=O)N1CCCC(C(=O)Oc2ccc(OC)cc2)C1 (stereo not drawn),40.5
16,COc1cc(CNC2CCCCCCC2)ccc1OCC(N)=O,> 48.1
17,COC(=O)C(C(=O)OC)c1ncccc1[N+](=O)[O-],> 38.1
18,Cc1cc(C)nc(SCc2ccc(F)cc2)n1,10
19,O=C(Nc1cccc(C(=O)Nc2ccc(Cl)cn2)c1)c1ccccc1,0.7
20,COC(=O)/C(C#N)=C/c1c(Oc2cccc(C)c2C)nc2ccccn2c1=O,1
21,Cc1ccc(C2NC(=NCc3ccccc3)Nc3nc(C)cc(=O)n32)cc1 (stereo not drawn),13.1
22,Cc1cc(C)cc(C(=O)N2CCC3(CC2)NCCc2[nH]cnc23)c1,> 48.7
23,NC(=O)C1CCN(C(=O)CNC(=O)c2ccc(F)cc2)CC1,> 46.1
24,O=C(NC1CCCC1)C1CCN(C(=O)c2cccc(Cl)c2)CC1,> 50.2

row,SMILES,solubility kinetic [µg/mL]
1,COc1ccc(OCC(N)=O)cc1,> 27.2
2,Cc1cc(Cl)cc(C)c1OCCn1ccnc1.Cl,> 43.1
3,CC(=O)N(C)N(C)c1cc(C)nc(N)n1,> 31.4
4,COc1ccc(NC(=S)NC(=O)c2ccccc2)cn1,35.8
5,O=C(O)CCC(=O)N1CCc2c([nH]c3ccccc23)C1C(F)(F)F (stereo not drawn),> 51
6,NC(=O)NC(=O)CN1c2cccc3cccc(c23)S1(=O)=O,3.7
7,CC1CCN(C2=NC(=O)/C(=C/c3cccc(O)c3)S2)CC1,2.3
8,O=C(NC(=S)N1CCCCC1)c1csc([N+](=O)[O-])c1,> 44.9
9,O=C(CN1CCN(c2ccc([N+](=O)[O-])cc2Cl)CC1)N1CCOCC1,54.9
10,CC1(N(O)/C=C2\C=CC=CC2=O)CCCCC1=O (stereo not drawn),> 37.1
11,O=C(OCC(=O)N1CCc2ccccc21)c1ccc[nH]c1=O,8.6
12,c1ccc(-c2cc(N3CCCCC3)c3ccccc3n2)cc1,< 0.3
13,Nc1nc(Cl)cc(Oc2ccc([N+](=O)[O-])cc2)n1,1.5
14,CN(Cc1ccccc1)Cc1c(O)ccc2ccccc12,26.6
15,O=C(COC(=O)c1ccccn1)c1ccc([N+](=O)[O-])cc1,39.9
16,Cc1ccc(S(=O)(=O)NCCOc2nc(N(C)C)nc(N(C)C)n2)cc1,52.8
17,COCCCN(CC(=O)O)S(=O)(=O)c1ccccc1,> 43.1
18,Cc1ccc(-n2c(C)c(C)c3c(NCCN(C)C)ncnc32)cc1,37.4
19,O=C(Nc1ccc2ccccc2c1)c1ccc(Br)o1,4.9
20,COC(=O)c1cc(N2CCNCC2)nc2ccccc12.Cl,39.9
21,CC(C)c1ccc(NC2CCCN(C(=O)c3ccsc3)C2)cc1 (stereo not drawn),> 49.3
22,O=C(COC(=O)c1ccco1)Nc1cccc(S(=O)(=O)N2CCCCC2)c1,54.5
23,CNC(=O)c1cc(C(=O)c2ccc(Cl)cc2)c[nH]1,10.5
24,Cc1ccc(C(=O)NCCN2CCNC2=O)cc1,> 37.1

row,SMILES,solubility kinetic [µg/mL]
1,Cc1ccc(S(=O)(=O)NC2CC(C)(C)NC(C)(C)C2)cc1,40.5
2,Cc1cccc(C(=O)NCC(c2ccco2)N2CCc3ccccc32)c1 (stereo not drawn),8.2
3,Cc1ccc(C(=O)O/N=C(\N)c2ccccn2)cc1,6.9
4,COc1ccc(CNC(=O)COC(=O)c2ccc3ccccc3n2)cc1,16.3
5,CCc1ccc[n+](-c2nc([O-])sc2C=O)c1,> 35.1
6,CN1CCCN(C(=O)COc2cccc(C(F)(F)F)c2)CC1,> 47.4
7,Nc1nc(-c2ccc(Oc3ccccc3)cc2)cs1,12.8
8,O=C(O)c1cccc2c1C(=O)N(c1ccccc1)C2,> 38
9,COc1cccc(NC(=S)N2c3ccccc3CC2C)c1 (stereo not drawn),20.3
10,O=S(=O)(c1ccc(-c2ccccn2)s1)N1CCC2(CC1)OCCO2,1.5
11,O=C(NC(c1ccccc1)c1ccccn1)c1cccc([N+](=O)[O-])c1 (stereo not drawn),38.3
12,Cc1cc(=O)cc(C)n1-c1ccc(Cl)cc1,34.8
13,CCOC(=O)CN1C(=O)CC(c2ccc([N+](=O)[O-])cc2)C1=O (stereo not drawn),> 45.9
14,COc1ccc(CCNC(=O)COC(=O)c2ccccn2)cc1,> 47.2
15,CCOC(=O)C1CCN(S(=O)(=O)c2ccc(Cl)s2)CC1,12.3
16,CCCN1C2CCCC1CC(NC(=O)c1ccccc1OC)C2 (stereo not drawn),> 47.5
17,Cc1ccc(NC(=O)CNC(C)c2ccccc2)cc1.Cl (stereo not drawn),> 45.7
18,COC(=O)c1sc(SC)c(S(=O)(=O)C(C)C)c1N,3.8
19,COCCNC(=S)N1CCCC(CO)C1 (stereo not drawn),> 34.9
20,O=C(COC(=O)c1cc(S(=O)(=O)N2CCOCC2)ccc1F)NC1CC1,55.1
21,Cc1cc(C)c(S(=O)(=O)c2ccc(F)cc2C)c(Cl)n1,36.8
22,CN(C(=O)COC(=O)c1ccc(S(=O)(=O)N2CCOCC2)cc1)c1ccccc1,15.8
23,C/C(CC(=O)Nc1ccc(Cl)cc1C(F)(F)F)=N\NC(N)=S,> 52.9
24,CC(=O)c1ccc2noc(-c3ccc(C)cc3)c2c1,26.2

row,SMILES,solubility kinetic [µg/mL]
1,Cc1csc2c(N3CCC(C(=O)O)CC3)ncnc12,36.9
2,Fc1cc(F)c(NC(=S)N2CCOCC2)c(F)c1,> 41.4
3,N#CC1(NC(=O)CSc2nc3ccccc3o2)CCCCC1,> 47.3
4,COc1ccccc1C(=O)COC(=O)CN1C(=O)C2CC=CCC2C1=O (stereo not drawn),52
5,Cn1ncc(Cl)c1C(=O)NC1CCCC1,> 34.2
6,COCCNc1nc(N)c([N+](=O)[O-])c(NCc2ccccc2)n1,4.9
7,COc1ccccc1CNC(=O)COc1ccc2c(c1)CCC2,20.5
8,CC(C)CC(NC(=O)C1CCC(C)CC1)C(=O)NCc1ccco1 (stereo not drawn),25.2
9,Cc1nc(N2CCOCC2)nc(N2CCC(C)CC2)c1[N+](=O)[O-],12.6
10,CN(CC(=O)Nc1ccccc1C(F)(F)F)C(=O)CSc1nnc(-c2ccncc2)n1C,> 69.7
11,CN(C(=O)CN1C(=O)NC2(CCc3ccccc32)C1=O)C1CCCCC1 (stereo not drawn),> 53.3
12,CCn1c(=O)c(C(=O)Nc2ccc(C)cc2)c(O)c2ccccc21,< 0.3
13,O=C(CNC(=O)N1CC(=O)Nc2ccccc21)Nc1ccccc1,> 48.7
14,Cc1cc(C)c2cc(C(=O)N3CCC(N4CCCCC4)CC3)[nH]c2c1,> 50.9
15,CN(c1ccccc1)S(=O)(=O)c1cccc(NC(=O)CCNC(=O)c2ccc([N+](=O)[O-])cc2)c1,13
16,CCOC(=O)Cc1csc(NC(=O)c2ccc([N+](=O)[O-])cc2[N+](=O)[O-])n1,> 57
17,O=[N+]([O-])c1ccc(S(=O)(=O)NCCCc2ccccc2)cc1,28
18,Fc1ccc(Nc2ncnc3sccc23)cc1,32.8
19,CCOCC(=O)N1CCN(Cc2ccc3c(c2)OCO3)CC1,> 46
20,CCn1cc([N+](=O)[O-])c(C(=O)N2CCCc3ccccc32)n1,> 45
21,O=C(OCc1cccc(C(F)(F)F)c1)c1ccc[nH]c1=O,> 44.6
22,COC(=O)Cn1cnc2scc(-c3ccc(C)cc3)c2c1=O,> 47.2
23,CS(=O)(=O)c1ccc(Cl)c(C(=O)NCC2CCCCC2)c1,> 49.5
24,O=[N+]([O-])c1ccccc1O[C@@H]1O[C@H](CO)[C@H](O)[C@H](O)[C@H]1O,> 45.2

row,SMILES,solubility kinetic [µg/mL]
1,COc1ccc(S(=O)(=O)NC(C)C(=O)NC2CC2)cc1C (stereo not drawn),> 46.9
2,Cc1cc(C)c(NC(=O)CNC(=O)c2ccc3ncsc3c2)c(C)c1,6.7
3,O=S(=O)(NCc1ccccn1)c1ccc(Cl)c(C(F)(F)F)c1,16.5
4,Br.Cn1c(=N)n(CC(=O)c2ccc(F)cc2)c2ccccc21,> 54.6
5,COc1ccc(NC(=O)CNC(=O)c2cccs2)cc1Cl,2.7
6,Cc1ccc(NC(=O)C2CCCO2)c(Br)c1 (stereo not drawn),37.5
7,S=c1ccc2ccccc2[nH]1,22.6
8,O=[N+]([O-])/C(C(Cl)=C(Cl)Cl)=C1\Nc2ccccc2O1,> 46.1
9,Cc1cccc(NC(=O)c2ccc(OCc3c(C)noc3C)cc2)c1C,3.4
10,C#CCN(CC=C)C(=O)c1ccc2nc(C3CCCCC3)oc2c1,43.5
11,O=C1CNC(c2ccccc2Cl)c2cc(Br)ccc2N1 (stereo not drawn),0.8
12,CC(C)(C)C(=O)Nc1ccc(N2CCN(S(C)(=O)=O)CC2)cc1,17.6
13,N/C(=N/O)c1cccn1Cc1ccccc1[N+](=O)[O-],> 39
14,COc1ccc(OC)c(/C=C/c2[nH]c(=O)[nH]c(=O)c2[N+](=O)[O-])c1,35.1
15,Brc1cc2c(cc1CSc1ncccn1)OCO2,0.9
16,CCOc1ccccc1C(=O)Nc1cc(C)ccc1NC(=O)c1ccco1,43.4
17,CCOc1ccc(N)cc1OC.Cl,> 30.6
18,CCc1noc(C)c1C(=O)OCC(=O)Nc1ccc2c(c1)OCO2,9.5
19,FC(F)Oc1cccc(NC(=S)N2CCN(c3ccccn3)CC2)c1,2.3
20,Fc1ccc2[nH]c3c(NCc4ccccc4)ncnc3c2c1,3.4
21,CCOC(=O)c1c(O)cc(C)[nH]c1=O,> 29.6
22,COC(=O)c1cn(C(=O)c2cc(OC)cc(OC)c2)c2ccccc12,3.4
